Data as given in patent US11376214B2, “Compositions and methods for treatment of ocular diseases” (KIORA PHARMACEUTICALS, INC., priority 2019, dated 2022).
Where a name gives a salt, the structure may show the parent alone. Read-outs that look alike come from different tables or passages of the source. One block for each compound: values may come before it.

Columns and labels:
[1] = Release of antibiotic from hydrogel or PBS in dialysis chamber; assay type: physicochemical
Method: For this assessment, a 0.5 ml sample of hydrogel plus drug or PBS plus drug was placed into a medi-dialysis chamber, and the chamber was placed in a beaker containing 100 ml of PBS. The remaining amount of drug in the dialysis chamber was monitored using UV spectroscopy at various time points. […] The release was monitored as described above. […] Another drug release study was performed, with Moxi-FB and Besi-HCl as the antibiotics, a hydrogel with 7.5 mg/ml CMHA-S, and the antibiotics incorporated at 10 mg/ml. For this study, the samples were placed in a dialysis chamber that was then placed in a tube that contained 10 ml of PBS. The dialysis chamber was transferred to a new tube at each time point, and the dialysate was analyzed by UV absorption (rather than the material inside the dialysis chamber), and the released amount of drug was calculated (rather than the amount remaining). In this experimental set-up, drug release from the hydrogel was slower than from PBS (FIGS. 4A and 4B). Despite the poor water solubility of Besi-HCl compared to Moxi-FB, Besi-HCl was still released from the hydrogel.

[2] = cited from earlier work
[3] = Rheological testing (parallel plate rheometer): viscosity and shear-thinning; assay type: physicochemical; settings: antibiotic 1 mg/ml incorporated in hydrogel (CMHA-S about 7.5 mg/ml)
Method: Thiol-modified carboxymethyl HA (CMHA-S) was synthesized as described in Lawyer et al. and Wendling et al., with a thiol modification of 0.1, 0.2, 0.4, or 0.7 μmol thiol/mg. Hydrogels were created by dissolving CMHA-S in phosphate-buffered saline (PBS; pH 7.4). The CMHA-S was disulfide crosslinked under continuous mixing with the addition of sodium hypochlorite. Rheological testing was performed using a parallel plate format rheometer with a 25 mm-diameter stainless steel geometry. Samples (5-6 ml) of hydrogel were placed in a 35 mm Petri dish, and the geometry was lowered to a gap of 5 mm. To determine viscosity and shear-thinning, the shear rate was varied from 0.1 to 10 Hz. A decreasing viscosity as shear rate increases indicates shear-thinning behavior. Table 1 provides the thiol modification of the CMHA-S, concentration of CMHA-S, and resultant viscosity of the hydrogel (at 2.5 Hz) for 4 hydrogel formulations.
(§1) Viscosity, pH, and refractive index (RI) were measured for hydrogels described in Example 2 with and without antibiotic incorporated. […] Viscosity was determined as described in Example 1. RI was measured with a refractometer and pH was measured with a pH meter.

[4] = Refractive index by refractometer; assay type: physicochemical; settings: antibiotic 1 mg/ml incorporated in hydrogel (CMHA-S about 7.5 mg/ml)
Method: as §1

[5] = pH by pH meter; assay type: physicochemical; settings: antibiotic 1 mg/ml incorporated in hydrogel (CMHA-S about 7.5 mg/ml)
Method: as §1

[6] = system: Pseudomonas aeruginosa; test: Zone of inhibition (ZOI) study of dialysate samples; assay type: cell-based; settings: P. aeruginosa
Method: (§2) To verify the efficacy of a drug in the hydrogel, zone of inhibition (ZOI) studies were conducted. […] Samples of the dialysate were collected at 0, 1, 2, 4, and 8 hours. Filter paper disks were soaked in each sample, placed on a bacteria-inoculated plate, and the ZOIs were compared between PBS group and hydrogel group.

[7] = system: Staphylococcus aureus; test: as above; assay type: cell-based; settings: S. aureus
Method: as §2

[8] = released from PBS (1 mg/ml), dialysate at 4 hrs
[9] = released from PBS (1 mg/ml), dialysate at 8 hrs
[10] = released from hydrogel (CMHA-S 7.5 mg/ml, drug 1 mg/ml), dialysate at 8 hrs

drug release from hydrogel compared with PBS ([1]; antibiotic 10 mg/ml in hydrogel with 7.5 mg/ml CMHA-S, dialysis chamber in 10 ml PBS, new tube at each time point, dialysate UV): slower
Structure (SMILES): N[C@@H]1CCCCN(c2c(F)cc3c(=O)c(C(=O)O)cn(C4CC4)c3c2Cl)C1 [Besi-HCl, besifloxacin hydrochloride]
solubility in water [2]: about 1 mg/ml

Structure (SMILES): COc1c(N2C[C@@H]3CCCN[C@@H]3C2)c(F)cc2c(=O)c(C(=O)O)cn(C3CC3)c12 [Moxi-FB, moxifloxacin]
solubility in water [2]: about 1 mg/ml

Viscosity at 2.5 Hz ([3]; hydrochloride): 1.6 Pa · s
Refractive index ([4]; hydrochloride): 1.3355
pH ([5]; hydrochloride): 7.0
drug release from hydrogel compared with PBS ([1]; drug 1 mg/ml in hydrogel #4 (CMHA-S 4.0 mg/ml)): slightly slower
time within which release was complete ([1]; drug 1 mg/ml in hydrogel #4 (CMHA-S 4.0 mg/ml), medi-dialysis chamber in 100 ml PBS): ≤ 4 h
drug release from hydrogel compared with PBS ([1]; drug 1 mg/ml in hydrogel (CMHA-S about 7.5 mg/ml), medi-dialysis chamber in 100 ml PBS): only slightly slowed down
Structure (SMILES): COc1c(N2C[C@@H]3CCCN[C@@H]3C2)c(F)cc2c(=O)c(C(=O)O)cn(C3CC3)c12 [Moxi-HCl, moxifloxacin hydrochloride]
ZOI [6, 8]: 24.7 ± 2.8 mm
ZOI [6, 9]: 20.5 ± 1.8 mm
ZOI ([6]; released from hydrogel (CMHA-S 7.5 mg/ml, drug 1 mg/ml), dialysate at 1 hrs): 28.7 ± 0.3 mm
ZOI ([6]; released from hydrogel (CMHA-S 7.5 mg/ml, drug 1 mg/ml), dialysate at 4 hrs): 26.8 ± 1.4 mm
ZOI [6, 10]: 26.5 ± 3.2 mm
ZOI ([7]; released from PBS (1 mg/ml), dialysate at 2 hrs): 28.3 ± 1.0 mm
ZOI [7, 8]: 26.5 ± 2.5 mm
ZOI [7, 9]: 23.5 ± 2.8 mm
ZOI [7, 10]: 27.2 ± 1.3 mm
solubility in water ([2]; hydrochloride): ~20 mg/mL

Viscosity at 2.5 Hz [3]: 1.4 Pa · s
Refractive index [4]: 1.3355
pH [5]: 8.6
Structure (SMILES): NC[C@H]1O[C@H](O[C@H]2[C@H](O)[C@@H](O[C@H]3O[C@H](CO)[C@@H](O)[C@H](N)[C@H]3O)[C@H](N)C[C@@H]2N)[C@H](N)C[C@@H]1O [Tobramycin, tobramycin]
solubility in water [2]: > 50 mg/mL
